“Also recorded” adds a separate entry of the source. Marks after values point to notes of the source that are not given here.
Tests used:
[1] = tested on: calvarial osteoblasts, hFOB, BMMSCs; experiment: Bone mineralization of bone-derived cells (fluorescent binding to hydroxyapatite); format: cell-based, mouse, human; settings: pre-incubation
Procedure: The binding of fluorescent Osteomalge to the hydroxyapatite portion of mineralized nodules was measured.

[2] = tested on: ovariectomized CD-1 mice; experiment: MicroCT of trabecular and cortical bone, Model 1 mouse OVX; format: in vivo
[3] = tested on: ovariectomized CD-1 mice; experiment: Bone histomorphometry, Model 1 mouse OVX; format: in vivo; settings: OVX CD-1 mice; GA single s.c.; 8 weeks
Description: Patterns of bone mineralization (BM: decreased), resorption cavities (RC: increased) and osteoclasts (stained multinuclear cells (two arrows): increased) were affected by OVX. These effects were reversed by drug treatment. In one aspect, this means that targeting CCK2 receptors normalizes bone morphology irrespective of low estrogen levels.
Gastrin-antagonist treatment reversed these phenomena (FIG. 45).

[4] = tested on: ovariectomized CD rats; experiment: Bone histomorphometry, Model 2 rat OVX; format: in vivo; settings: GA single s.c., 8 weeks
Description: These effects were reversed by drug treatment. In one aspect, this reflects that targeting CCK2 receptors normalizes bone morphology irrespective of low estrogen levels.
Gastrin-antagonist treatment reversed these phenomena (FIG. 50).

[5] = tested on: ovariectomized CD rats; experiment: Circulating blood markers, Model 2 rat OVX; format: in vivo
Procedure: Ovariectomy increased PINP and osteocalcin. […] CON=control animals, OVX=ovariectomized animals, OVX+GA=gastrin antagonist treated ovariectomized animals. Mean±SEM. *p<0.05 vs. CON, **p<0.05 vs. OVX alone.
Circulating bone biomarkers were also altered by OVX. Specifically, both PINP (0.57±0.18 ng/ml vs. 0.35±0.06, p<0.05) and osteocalcin was elevated (1.35±0.9 ng/ml vs. 0.43±0.07, p<0.05). Treatment with the antagonist attenuated each of these ovariectomy-mediated alterations.

[6] = tested on: ovariectomized Mastomys; experiment: Bone strength (Instron), Model 3 Mastomys OVX; format: in vivo
Procedure: Finally, bone strength was examined in Mastomys using an Instron device. Femurs were loaded to failure in four-point bending. Tests were conducted with a deflection rate of 0.05 mm/sec using a servohydraulic testing machine (Instron model 8874; Instron Corp., Norwood, Mass., USA). […] Measurements of bone strength using the Instron device confirmed the utility of the gastrin-antagonist in reversing the OVX-mediated bone phenotype.

[7] = tested on: ovariectomized Mastomys; experiment: Bone histomorphometry, Model 3 Mastomys OVX; format: in vivo; settings: GA single s.c., 8 weeks
Description: Patterns of bone mineralization (BM: decreased), resorption cavities (RC: increased) and osteoclasts (stained multinuclear cells (two arrows): increased) were affected by OVX. These effects were reversed by drug treatment.
The gastrin-antagonist treatment reversed these phenomena (FIG. 55).

[8] = tested on: ovariectomized Mastomys; experiment: Circulating blood markers, Model 3 Mastomys OVX; format: in vivo
Procedure: CON=control animals, OVX=ovariectomized animals, OVX+GA=gastrin antagonist treated ovariectomized animals. Mean±SEM. *p<0.05 vs. CON, **p<0.05 vs. OVX alone.
Circulating bone biomarkers were also altered by OVX. Specifically, PINP was increased (0.16±0.03 ng/ml vs. 0.13±0.01, p<0.05) as was CTx-1 (0.24±0.17 ng/ml vs. 0.03±0.03, p<0.05) while osteocalcin was elevated (1.6±1.1 ng/ml vs. 0.4±0.16, p<0.05). Treatment with the antagonist attenuated each of these three ovariectomy-mediated alterations.

[9] = tested on: ovariectomized CD rats; experiment: MicroCT of trabecular and cortical bone, Model 2 rat OVX
Description: Microcomputed tomography (MicroCT) and bone bending as well as osmium uptake and PCR were used to evaluate bone dynamics and osteoporotic features in the different animal models. MicroCT assesses density and volume of both the trabecular and cortical bones. Measurements of the radius and circumference of the cortical bone can be undertaken. Calculations of the connectivity density, the structural model index (SMI) as well as the stiffness (all measures of structure) of the bone can be made. The polar moment of inertia (pMOI) as well as fracture and workloads identify the underlying bone strength.
Both mice and rats were exposed to the PPI, omeprazole, while the Mastomys were exposed to the H2 Receptor antagonist, loxitidine. GA administration was a single subcutaneous injection at the start of acid inhibition. Pharmacokinetically, this dose ranges between 15-20 nmol over an 8 week period.
Three groups were included for each animal model: a) Group A=placebo/saline treated (no OVX/Controls); b) Group B=OVX+Acid Inhibitory therapy (OVX); and c) Group C=GA treated ovariectomized animals (OVX+GA). At the termination of study (2 months), we evaluated whether the GA reversed the OVX-mediated alterations in bone parameters (microCT, bone strength and histomorphometry as well as circulating markers).
At the start of GA treatment, animals were 98 days (3.2 months) and at study termination, they were 163 days (5.4 months).

[10] = OVX CD-1 mice + omeprazole, GA 15 ug/animal single s.c., 8 weeks, cortical bone
[11] = OVX CD-1 mice + omeprazole, GA 15 ug/animal single s.c., 8 weeks, trabecular bone
[12] = OVX CD-1 mice, GA-treated vs control, cortical bone
[13] = OVX CD-1 mice, GA-treated vs control, trabecular bone
[14] = OVX CD rats + omeprazole, GA 50 ug/animal single s.c., 8 weeks
[15] = OVX CD rats, GA-treated vs control
[16] = OVX Mastomys + loxitidine, GA 10 ug/animal single s.c., 8 weeks
[17] = OVX Mastomys, GA-treated vs control
[18] = OVX Mastomys + loxitidine, GA 10 ug/animal single s.c., 8 weeks, listed as GA
[19] = OVX Mastomys + loxitidine, GA 10 ug/animal single s.c., 8 weeks, listed as antagonist
[20] = OVX CD rats + omeprazole, GA 50 ug/animal single s.c., 8 weeks, cortical bone
[21] = OVX CD rats + omeprazole, GA 50 ug/animal single s.c., 8 weeks, trabecular bone
[22] = OVX CD rats + omeprazole, GA 50 ug/animal single s.c., 8 weeks, trabecular bone, listed as GA
[23] = OVX CD rats + omeprazole, GA 50 ug/animal single s.c., 8 weeks, trabecular bone, listed as Gastrin antagonist
[24] = OVX CD rats, GA-treated vs control, cortical bone
[25] = OVX CD rats, GA-treated vs control, trabecular bone

CNc1cccc(NC(=O)N[C@@H]2N=C(c3ccccn3)c3ccccc3N(CC(=O)C(C)(C)C)C2=O)c1 [YF476, netazepide]
effect on gastrin inhibition of mineralization [1]: inhibited; also recorded: not reversed
BS [2, 10]: 11.3
BV/TV [2, 10]: 0.93
Ct. Th [2, 10]: 0.21
pMOI [2, 10]: 0.35
Dens (Apparent Density, cortical) ([2]; OVX CD-1 mice + omeprazole, GA 15 ug/animal single s.c., 8 weeks, cortical bone, listed as GA): 1025
Dens (Apparent Density, cortical) ([2]; OVX CD-1 mice + omeprazole, GA 15 ug/animal single s.c., 8 weeks, cortical bone, listed as Gastrin-antagonist): 1025±37
BS [2, 11]: 16.8
BV/TV [2, 11]: 0.123
Conns-Dens [2, 11]: 128.6
SMI [2, 11]: 1.38
Tb. N [2, 11]: 2.43
Tb. Sp [2, 11]: 0.528
Tb. Th [2, 11]: 0.051
Dens (Apparent Density, trabecular) ([2]; OVX CD-1 mice + omeprazole, GA 15 ug/animal single s.c., 8 weeks, trabecular bone, listed as GA): 70.7
Dens (Apparent Density, trabecular) ([2]; OVX CD-1 mice + omeprazole, GA 15 ug/animal single s.c., 8 weeks, trabecular bone, listed as Gastrin antagonist): 70.7±19
% Change BS [2, 12]: −15%*
% Change BV/TV [2, 12]: 2%*
% Change Ct. Th [2, 12]: +39%*^,**
% Change Dens (Apparent Density, cortical) [2, 12]: −11%*^,**
% Change pMOI [2, 12]: −11%
% Change BS [2, 13]: −32%*^, **
% Change BV/TV [2, 13]: −33%*^, **
% Change Conns-Dens [2, 13]: −62%*^, **
% Change Dens (Apparent Density, trabecular) [2, 13]: −60%*^, **
% Change SMI [2, 13]: +20%**
% Change Tb. N [2, 13]: −30%*^, **
% Change Tb. Sp [2, 13]: +82%*
% Change Tb. Th [2, 13]: +28%*
effect on OVX changes in bone mineralization, resorption cavities and TRAP-positive osteoclasts [3]: reversed
effect on OVX changes in bone mineralization, resorption cavities and TRAP-positive osteoclasts [4]: reversed
CTX1 [5, 14]: 0.42
ESR (circulating estrogen) [5, 14]: 2.1 pg/mL
Gastrin (circulating) [5, 14]: 2971 pg/mL
Osteocalcin [5, 14]: 0.80 ng/mL
PINP [5, 14]: 0.48 ng/mL
PTH (circulating) [5, 14]: 1562
% Change CTX1 [5, 15]: −49%
% Change ESR [5, 15]: −60%*
% Change Gastrin [5, 15]: +183%*
% Change Osteocalcin [5, 15]: +81%**
% Change PINP [5, 15]: +41%
% Change PTH [5, 15]: −15%
Fracture Load [6, 16]: 42.1
Max Load [6, 16]: 42.2
Stiffness [6, 16]: 311
Total Work [6, 16]: 14.8
Yield (Stiffness) [6, 16]: 280
% Change Fracture Load [6, 17]: −25%
% Change Max Load [6, 17]: −25%
% Change Stiffness [6, 17]: −6%**
% Change Total Work [6, 17]: 55%*^,**
% Change Yield (Stiffness) [6, 17]: −6%**
effect on OVX changes in bone mineralization, resorption cavities and TRAP-positive osteoclasts [7]: reversed
CTX-1 [8, 16]: 0.1 ng/mL
ESR (circulating estrogen) [8, 16]: 2.54 pg/mL
Osteocalcin [8, 16]: 1.13 ng/mL
PINP [8, 16]: 0.13 ng/mL
Gastrin (circulating) [8, 18]: 2703 pg/mL
PTH (circulating) [8, 18]: 151 pg/mL
Gastrin (circulating) [8, 19]: 2704 ± 430 pg/mL
PTH (circulating) [8, 19]: 150 ± 37 pg/mL
% Change CTX-1 [8, 17]: +230%
% Change ESR [8, 17]: −70%*
% Change Gastrin [8, 17]: −27%**
% Change Osteocalcin [8, 17]: +13%
% Change PINP [8, 17]: 0%*^, **
% Change PTH [8, 17]: −48%*^, **
BS [9, 20]: 43.3
BV/TV [9, 20]: 0.965
Ct. Th [9, 20]: 0.68
pMOI [9, 20]: 14.03
Dens (Apparent Density, cortical) ([9]; OVX CD rats + omeprazole, GA 50 ug/animal single s.c., 8 weeks, cortical bone, listed as GA): 1098
Dens (Apparent Density, cortical) ([9]; OVX CD rats + omeprazole, GA 50 ug/animal single s.c., 8 weeks, cortical bone, listed as Gastrin-antagonist): 1098±24
BS [9, 21]: 154
BV/TV [9, 21]: 0.189
Conns-Dens [9, 21]: 68.58
Tb. N [9, 21]: 2.17
Tb. Sp [9, 21]: 0.48
Tb. Th [9, 21]: 0.09
Dens (Apparent Density, trabecular) [9, 22]: 200.5
SMI [9, 22]: 1.33
Dens (Apparent Density, trabecular) [9, 23]: 204±27
SMI [9, 23]: 1.3±0.17
% Change BS [9, 24]: −13%*
% Change BV/TV [9, 24]: 0%**
% Change Ct. Th [9, 24]: +12%*
% Change Dens (Apparent Density, cortical) [9, 24]: −4%*^,**
% Change pMOI [9, 24]: −22%*
% Change BS [9, 25]: −21%
% Change BV/TV [9, 25]: −30%**
% Change Conns-Dens [9, 25]: +8%
% Change Dens (Apparent Density, trabecular) [9, 25]: −30%*^, **
% Change SMI [9, 25]: +143%*
% Change Tb. N [9, 25]: −18%**
% Change Tb. Sp [9, 25]: +9%**
% Change Tb. Th [9, 25]: −13%**

— US10709714B2 (CL BioSciences LLC, priority 2013, dated 2020)
